Patent US7223865B2, “Chromogenic compounds, and use thereof as enzyme substrates” (Biomerieux, priority 2003, dated 2007)

Legend:
Assay type in all cases: cell-based
Candida albicans (056) = assay: L-alanine-aminopeptidase activity on gelled medium, Example 3; details: 0.3 g/l
Experimental: (§1) A gelled medium comprising 300 mg/l of L-Ala-4-AP-10-MA is prepared as follows: 46.37 g of Columbia agar are added to 1 liter of distilled water and then autoclaved, and the substrate is then introduced by means of a stock solution in DMSO. Microorganisms derived from the applicant's collection were seeded onto the medium, by delimitation as three dials, using a suspension at 0.5 McFarland. The dishes were incubated at 37° C. for 48 hours. The colonies formed were examined visually after incubation for 24 and 48 hours. The color of these colonies and also the intensity of this color were noted.

[1] = system: Klebsiella pneumoniae (023); assay: as above; details: 0.3 g/l
Experimental: as §1

[2] = system: Staphylococcus aureus (070); assay: as above; details: 0.3 g/l
Experimental: as §1

Escherichia coli (032) [3] = assay: as above; details: 0.3 g/l
Experimental: as §1

Proteus mirabilis (103) = assay: as above; details: 0.3 g/l
Experimental: as §1

Listeria innocua (036) = assay: as above; details: 0.3 g/l
Experimental: as §1

[4] = system: Streptococcus pyogenes (067); assay: as above; details: 0.3 g/l
Experimental: as §1

Citrobacter koseri (090) = assay: as above; details: 0.3 g/l
Experimental: as §1

[5] = system: Enterococcus faecalis (075); assay: as above; details: 0.3 g/l
Experimental: as §1

[6] = system: Enterobacter cloacae (NCTC 11936); assay: L-alanine-aminopeptidase activity on gelled medium, Example 8; design: key to growth: ++ means good growth; + means moderate growth; +/− means poor growth; NG means no growth
Experimental: (§2) A gelled medium comprising these three substrates is prepared as follows: 30 mg of each substrate are dissolved (heating) in 10 ml of sterile distilled water. Ten ml of this solution are then added to 90 ml of Columbia agar kept molten at 50° C.
(§3) Various strains of microorganisms derived from the NCTC collection (National Collection of Type Cultures, Colindale, UK) were seeded onto the media thus obtained according to multipoint inoculation: for each strain, a drop of 10 μl of a suspension at 0.5 McFarland is deposited onto each of the culture media.
(§4) The colonies formed were examined visually after incubation for 24 h and 48 h. The color and the growth of these colonies were noted.

[7] = system: Pseudomonas aeruginosa (NCTC 10662); assay: as above; design: key to growth: ++ means good growth; + means moderate growth; +/− means poor growth; NG means no growth
Experimental: as §2, §3, §4

[8] = system: Enterococcus faecalis (NCTC 755); assay: as above; design: key to growth: ++ means good growth; + means moderate growth; +/− means poor growth; NG means no growth
Experimental: as §2, §3, §4

[9] = system: Staphylococcus aureus (NCTC 6571); assay: as above; design: key to growth: ++ means good growth; + means moderate growth; +/− means poor growth; NG means no growth
Experimental: as §2, §3, §4

[10] = system: Enterococcus faecalis (NCTC 12697); assay: as above; design: key to growth: ++ means good growth; + means moderate growth; +/− means poor growth; NG means no growth
Experimental: as §2, §3, §4

[11] = system: Klebsiella pneumoniae (NCTC 10896); assay: as above; design: key to growth: ++ means good growth; + means moderate growth; +/− means poor growth; NG means no growth
Experimental: as §2, §3, §4

[12] = system: Salmonella typhimurium (NCTC 74); assay: as above; design: key to growth: ++ means good growth; + means moderate growth; +/− means poor growth; NG means no growth
Experimental: as §2, §3, §4

[13] = system: Shigella sonnei (NCTC 9774); assay: as above; design: key to growth: ++ means good growth; + means moderate growth; +/− means poor growth; NG means no growth
Experimental: as §2, §3, §4

[14] = system: Enterococcus faecium (NCTC 7171); assay: as above; design: key to growth: ++ means good growth; + means moderate growth; +/− means poor growth; NG means no growth
Experimental: as §2, §3, §4

[15] = system: Serratia marcescens (NCTC 10211); assay: as above; design: key to growth: ++ means good growth; + means moderate growth; +/− means poor growth; NG means no growth
Experimental: as §2, §3, §4

[16] = system: Burkholderia cepacia (NCTC 10743); assay: as above; design: key to growth: ++ means good growth; + means moderate growth; +/− means poor growth; NG means no growth
Experimental: as §2, §3, §4

[17] = system: E. coli O157 (NCTC 12079); assay: as above; design: key to growth: ++ means good growth; + means moderate growth; +/− means poor growth; NG means no growth
Experimental: as §2, §3, §4

[18] = system: Staphylococcus aureus (NCTC 11939); assay: as above; design: key to growth: ++ means good growth; + means moderate growth; +/− means poor growth; NG means no growth
Experimental: as §2, §3, §4

[19] = system: Salmonella poona (NCTC 4840); assay: as above; design: key to growth: ++ means good growth; + means moderate growth; +/− means poor growth; NG means no growth
Experimental: as §2, §3, §4

[20] = system: Listeria monocytogenes (NCTC 11994); assay: as above; design: key to growth: ++ means good growth; + means moderate growth; +/− means poor growth; NG means no growth
Experimental: as §2, §3, §4

[21] = system: Klebsiella pneumoniae (023); assay: β-alanine-aminopeptidase activity on gelled medium, Example 5; details: 0.3 g/l
Experimental: as §1, with “of β-Ala-4-AP-10-MA” for “of L-Ala-4-AP-10-MA”, “suspension of” for “suspension at”

[22] = system: Pseudomonas aeruginosa (052); assay: as above; details: 0.3 g/l
Experimental: as §1, with “of β-Ala-4-AP-10-MA” for “of L-Ala-4-AP-10-MA”, “suspension of” for “suspension at”

Escherichia coli (032) [23] = assay: as above; details: 0.3 g/l
Experimental: as §1, with “of β-Ala-4-AP-10-MA” for “of L-Ala-4-AP-10-MA”, “suspension of” for “suspension at”

[24] = system: Pseudomonas stutzeri (073); assay: as above; details: 0.3 g/l
Experimental: as §1, with “of β-Ala-4-AP-10-MA” for “of L-Ala-4-AP-10-MA”, “suspension of” for “suspension at”

[25] = system: Pseudomonas fluorescens (016); assay: as above; details: 0.3 g/l
Experimental: as §1, with “of β-Ala-4-AP-10-MA” for “of L-Ala-4-AP-10-MA”, “suspension of” for “suspension at”

Pseudomonas putida (028) = assay: as above; details: 0.3 g/l
Experimental: as §1, with “of β-Ala-4-AP-10-MA” for “of L-Ala-4-AP-10-MA”, “suspension of” for “suspension at”

[26] = system: Pseudomonas aeruginosa (165); assay: as above; details: 0.3 g/l
Experimental: as §1, with “of β-Ala-4-AP-10-MA” for “of L-Ala-4-AP-10-MA”, “suspension of” for “suspension at”

[27] = system: Acinetobacter calcoaceticus (034); assay: as above; details: 0.3 g/l
Experimental: as §1, with “of β-Ala-4-AP-10-MA” for “of L-Ala-4-AP-10-MA”, “suspension of” for “suspension at”

[28] = system: Burkholderia cepacia (004); assay: as above; details: 0.3 g/l
Experimental: as §1, with “of β-Ala-4-AP-10-MA” for “of L-Ala-4-AP-10-MA”, “suspension of” for “suspension at”

## C[C@H](N)C(=O)Nc1ccc(-c2c3ccccc3[n+](C)c3ccccc23)cc1.[Cl-] [L-Ala-4-AP-10-MA, L-alanyl-9-(4-aminophenyl)-10-methylacridinium Chloride]
Candida albicans (056); 24 H
  Color: colorless
Candida albicans (056); 48 h
  Color: colorless
[1]; 24 H
  Color: pink-orange
  Intensity: 3
[1]; 48 h
  Color: pink-orange
  Intensity: 3
[2]; 24 H
  Color: inhibited
[2]; 48 h
  Color: inhibited
Escherichia coli (032) [3]; 24 H
  Color: pink-orange
  Intensity: 3.5
Escherichia coli (032) [3]; 48 h
  Color: pink-orange
  Intensity: 3.5
Proteus mirabilis (103); 24 H
  Color: pink-orange
  Intensity: 1
Proteus mirabilis (103); 48 h
  Color: pink-orange
  Intensity: 2
Listeria innocua (036); 24 H
  Color: colorless
Listeria innocua (036); 48 h
  Color: pink-orange
  Intensity: traces
[4]; 24 H
  Color: inhibited
[4]; 48 h
  Color: inhibited
Citrobacter koseri (090); 24 H
  Color: pink-orange
  Intensity: 3
Citrobacter koseri (090); 48 h
  Color: pink-orange
  Intensity: 3
[5]; 24 H
  Color: pink
  Intensity: traces
[5]; 48 h
  Color: pink-orange
  Intensity: 0.5
[6]; 24 h
  color of colonies: Orange
  growth: ++
[6]; 48 h
  color of colonies: Orange
  growth: ++
[7]; 24 h
  color of colonies: Orange
  growth: ++
[7]; 48 h
  color of colonies: Orange
  growth: ++
[8]; 24 h
  growth: NG
[8]; 48 h
  growth: NG
[9]; 24 h
  growth: NG
[9]; 48 h
  growth: NG
[10]; 24 h
  color of colonies: Colorless
  growth: +/−
[10]; 48 h
  color of colonies: Colorless
  growth: +/−
[11]; 24 h
  color of colonies: Orange
  growth: ++
[11]; 48 h
  color of colonies: Orange
  growth: ++
[12]; 24 h
  color of colonies: Orange
  growth: ++
[12]; 48 h
  color of colonies: Orange
  growth: ++
[13]; 24 h
  color of colonies: Orange
  growth: ++
[13]; 48 h
  color of colonies: Orange
  growth: ++
[14]; 24 h
  color of colonies: Colorless
  growth: ++
[14]; 48 h
  color of colonies: Colorless
  growth: ++
[15]; 24 h
  color of colonies: Orange
  growth: ++
[15]; 48 h
  color of colonies: Orange
  growth: ++
[16]; 24 h
  color of colonies: Orange
  growth: ++
[16]; 48 h
  color of colonies: Orange
  growth: ++
[17]; 24 h
  color of colonies: Orange
  growth: ++
[17]; 48 h
  color of colonies: Orange
  growth: ++
[18]; 24 h
  color of colonies: Colorless
  growth: ++
[18]; 48 h
  color of colonies: Colorless
  growth: ++
[19]; 24 h
  color of colonies: Orange
  growth: ++
[19]; 48 h
  color of colonies: Orange
  growth: ++
[20]; 24 h
  color of colonies: Colorless
  growth: ++
[20]; 48 h
  color of colonies: Colorless
  growth: ++

## C[n+]1c2ccccc2c(-c2ccc(NC(=O)CCN)cc2)c2ccccc21.[Cl-] [β-Ala-4-AP-10-MA, β-alanyl-9-(4-aminophenyl)-10-methylacridinium chloride]
[21]; 24 H
  Color: colorless
[21]; 48 h
  Color: colorless
[22]; 24 H
  Color: orange
  Intensity: 2
[22]; 48 h
  Color: orange
  Intensity: 3
Escherichia coli (032) [23]; 24 H
  Color: colorless
Escherichia coli (032) [23]; 48 h
  Color: colorless
[24]; 24 H
  Color: inhibited
[24]; 48 h
  Color: colorless
[25]; 24 H
  Color: inhibited
[25]; 48 h
  Color: colorless
Pseudomonas putida (028); 24 H
  Color: colorless
Pseudomonas putida (028); 48 h
  Color: colorless
[26]; 24 H
  Color: orange
  Intensity: 1.5
[26]; 48 h
  Color: orange
  Intensity: 3
[27]; 24 H
  Color: colorless
[27]; 48 h
  Color: colorless
[28]; 24 H
  Color: colorless
[28]; 48 h
  Color: colorless
